Test results published in paper PMC6050476, “Pre-clinical Pharmacokinetic and Metabolomic Analyses of Isorhapontigenin, a Dietary Resveratrol Derivative” (Frontiers in Pharmacology, 2018).

Assays:
[1] = Stability of isorhapontigenin in rat plasma QC samples under different storage conditions; format: in vitro ADME, Sprague-Dawley rat; conditions: for Freeze thaw stability (% remaining): 3 cycles; for Post preparative stability (% remaining): 4 °C, 6 h; for Long term stability (% remaining): -80 °C, 14 days; for Short term stability (% remaining): on ice, 3 h
Description: Stock solutions of ISO were prepared by dissolution in DMSO and they were stored at room temperature. The stock solutions were further diluted using blank rat plasma to prepare the calibration standards and QC samples. The stock solution of IS was dissolved in acetonitrile to a concentration of 10 μg/mL. 100 μL IS solution was aliquoted into 1.5-mL polypropylene tubes for storage at −80°C. During sample preparation, this solution was further diluted to the working concentration of 10 ng/mL using acetonitrile containing 0.18 μM of disodium EDTA and stored at 4°C.
The calibration range was 1–1000 ng/mL. A simple protein precipitation procedure was used for sample cleanup prior to LC–MS/MS analysis ([Chen et al., 2015], [2016b]). Three volumes of 10 ng/mL IS working solution (^13C isotopically labeled resveratrol in acetonitrile–0.18 μM disodium EDTA) were added to one volume of plasma sample spiked with of L-ascorbic acid at a final concentration of 0.8 mg/mL. After vigorous vortex, centrifugation of samples was performed at 15,000 g for 10 min at 4°C. Subsequently, the clear supernatants were transferred into HPLC vials. During each LC–MS/MS analysis, 1 μL of supernatant was injected into the system.
The dilution integrity was confirmed using a dilution factor of 20. In the presence of L-ascorbic acid (0.8 mg/mL), ISO appeared to stable in plasma; similarly, addition of EDTA in IS acetonitrile solution (0.18 μM) enhanced the post-preparative stability. The details in accuracy, precision, stability, and matrix effect can be found in Supplementary Tables S1–S3.

plasma metabolites = test: Plasma metabolomic profiling after 1-week isorhapontigenin intervention (GC–MS/MS); format: in vivo, Sprague-Dawley rats; conditions: 1-week daily oral ISO 100 μmol/kg vs vehicle, rat plasma
Description: Twenty-two rats were divided into four groups. Group 1 (n = 5) received a single bolus intravenous injection of ISO at the dose of 90 μmol/kg (23.2 mg/kg). Serial blood samples were collected before dosing and at 5, 15, 30, 60, 90, 120, 180, 240, 300, 420, 540, and 720 min after intravenous injection. Group 2 (n = 5) received a single oral administration of ISO at the dose of 200 μmol/kg (51.6 mg/kg). Serial blood samples were collected before dosing and at 15, 30, 45, 60, 90, 120, 180, 240, 300, 420, 540, and 720 min after oral gavage. Group 3 (n = 5) received daily oral pre-treatment of oral dosing vehicle (2 mL/kg) while Group 4 (n = 7) received daily oral pre-treatment of ISO at the dose of 100 μmol/kg (25.8 mg/kg) for 1 week. On day 7, ∼8–10 h after the last pre-treatment dose, surgery was performed on rats in Groups 3 and 4 for jugular vein cannulation, and blood samples were also collected from Groups 3 and 4 for metabolomic study. On day 8, the pharmacokinetic study was carried out on these two groups of animals at the dose of 100 μmol/kg (25.8 mg/kg) using the same blood sampling schedule as Group 2.
The plasma samples collected from rats receiving 1-week daily oral dosing of ISO at 100 μmol/kg (25.8 mg/kg) were subjected to metabolomic study using the rats receiving vehicle as control.
Plasma samples (30 μL aliquots in Eppendorf tubes) were thawed to room temperature (25°C). Myristic-d27 acid (20 μL of 200 μg/mL solution in methanol, IS) and 200 μL of methanol were added to each sample. Samples were vortexed for 5 min at room temperature and centrifuged for 10 min at 15,000 g (4°C). The top 200 μL of each supernatant was transferred to a glass centrifuge tube and dried under nitrogen gas. The dried samples were re-suspended in 100 μL of toluene, vortexed vigorously for 10 s, and dried again under nitrogen. A two-step derivatization method was used for chemical derivatization of the metabolites. Samples were first incubated with 50 μL of 2% methoxy-amine chloride in pyridine for 1.5 h at 60°C. Next, 50 μL of […] was added and the samples were incubated again for 1 h at 60°C. A total of 80 μL of derivatized samples were transferred to glass vials for GC–MS/MS analysis ([Chen et al., 2016a]). Pooled rat plasma from different plasma samples was used as QC and distilled water as blank samples. Two pooled plasma samples were injected before the first study sample and three pooled plasma samples were injected after every six study samples which serve as QC. The blank samples were injected at the beginning, at the middle, and at the end of the sample batch ([Phua et al., 2015]; [Chen et al., 2016a]).
GC–MS/MS analysis was performed using a Shimadzu TQ8040 gas chromatography-triple quadrupole mass spectrometer (Shimadzu Corporation, Japan). The GC injector port was set at 250°C and injection volume was 1 μL with a spilt ratio of 1:10. Chromatographic separation was achieved by a capillary column (BPX-5, 30 m × 0.25 mm × 0.25 μm, SGE Analytical Science, Australia) through constant helium carrier gas flow at 1.14 mL/min. The oven temperature was first held at 60°C for 2 min, followed by increasing temperature ramp of 15°C/min to 330°C, and then held at 330°C for 3 min. The interface and ion source were set at 280 and 200°C, respectively. The mass spectrometer was operated in the MRM mode.
The Shimadzu Smart Metabolites Database (Shimadzu Corporation, Japan) which contains a panel of 475 different endogenous metabolites was applied to identify the metabolites in rat plasma samples in this widely targeted metabolomics analysis. This database contains the retention indices and two MRM transitions of each of the 475 endogenous metabolites which facilitate simple, fast, and reliable metabolite identification and semi-quantification. This strategy has been successfully applied to many studies ([Hashimoto et al., 2017]; [Nishiumi et al., 2017]; [Tomonaga et al., 2018]). […]

COc1cc(/C=C/c2cc(O)cc(O)c2)ccc1O [isorhapontigenin, trans-3,5,4′-trihydroxy-3′-methoxystilbene]
Freeze thaw stability (% remaining) ([1]; QC 2 ng/ml in rat plasma): 98.4 ± 7.6 % remaining
Freeze thaw stability (% remaining) ([1]; QC 400 ng/ml in rat plasma): 94.0 ± 2.4 % remaining
Freeze thaw stability (% remaining) ([1]; QC 800 ng/ml in rat plasma): 92.3 ± 1.2 % remaining
Post preparative stability (% remaining) ([1]; QC 2 ng/ml): 108.0 ± 6.1 % remaining
Post preparative stability (% remaining) ([1]; QC 400 ng/ml): 108.0 ± 1.0 % remaining
Post preparative stability (% remaining) ([1]; QC 800 ng/ml): 108.0 ± 4.1 % remaining
Long term stability (% remaining) ([1]; QC 2 ng/ml in rat plasma): 87.9 ± 2.5 % remaining
Long term stability (% remaining) ([1]; QC 400 ng/ml in rat plasma): 101.0 ± 3.0 % remaining
Long term stability (% remaining) ([1]; QC 800 ng/ml in rat plasma): 97.0 ± 6.5 % remaining
Short term stability (% remaining) ([1]; QC 2 ng/ml in rat plasma): 104.0 ± 6.0 % remaining
Short term stability (% remaining) ([1]; QC 400 ng/ml in rat plasma): 102.0 ± 5.4 % remaining
Short term stability (% remaining) ([1]; QC 800 ng/ml in rat plasma): 98.7 ± 6.4 % remaining
Fold change of plasma 2-Aminoisobutyric acid (plasma metabolites): 1.351
Fold change of plasma 4-Hydroxyproline (plasma metabolites): 0.564
Fold change of plasma Acetylglycine (plasma metabolites): 0.508
Fold change of plasma Allantoin (plasma metabolites): 0.545
Fold change of plasma Arachidonic acid (plasma metabolites): 0.789
Fold change of plasma Aspartic acid (plasma metabolites): 0.475
Fold change of plasma Cadaverine (plasma metabolites): 0.54
Fold change of plasma Catechol (plasma metabolites): 1.411
Fold change of plasma Cholesterol (plasma metabolites): 0.789
Fold change of plasma Eicosapentaenoic acid (plasma metabolites): 0.762
Fold change of plasma Fructose (plasma metabolites): 0.608
Fold change of plasma Glycerol 2-phosphate (plasma metabolites): 0.73
Fold change of plasma Glycyl-glycine (plasma metabolites): 0.648
Fold change of plasma Linoleic acid (plasma metabolites): 0.82
Fold change of plasma N-Acetyl-ornithine (plasma metabolites): 0.474
Fold change of plasma N-Acetylglutamine (plasma metabolites): 0.804
Fold change of plasma Psicose (plasma metabolites): 0.709
Fold change of plasma Sorbose (plasma metabolites): 0.698
Fold change of plasma Tagatose (plasma metabolites): 0.705
Fold change of plasma Thymine (plasma metabolites): 1.198
Fold change of plasma Tryptamine (plasma metabolites): 1.469
effect on plasma glucose levels (plasma metabolites; no food restriction): did not change glucose levels
